The source of these data is patent US9326973B2, “Hepatitis C virus inhibitors” (priority 2012, dated 2016).

Some results are limits rather than exact numbers.

The assay has as its system HCV replicon, genotype-1a variant with glutamine 30 changed to glutamate in the NS5A protein. Kind of assay: microbe, parasite or virus in culture. It counts as cell-based, HCV genotype 1a. The note with it: HCV replicon genotype 1a Q30E (Q→E) variant; test compound titrated with an NS5A-targeting compound (BMS-790052 fixed at 200 nM); ranking of synergist activity. In outline: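 Synergy was assessed by combining several fixed amounts of an NS5A-targeting compound with a titration of the second compound of interest.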

Regarding `CC1(OC(=O)N2C[C@H](F)C[C@H]2C(=O)N[C@H](c2nc(-c3ccc(-c4ccc(-c5c[nH]c([C@@H](NC(=O)[C@@H]6C[C@@H](F)CN6C(=O)OC6(C)CC6)C(C)(C)C)n5)cc4)cc3)c[nH]2)C(C)(C)C)CC1` [Compound W-119], the “Fold-Synergistic 1a (Q30E)” value is listed as over 100 fold. For the compound `C[C@@H]1C[C@@H](C(=O)N[C@H](c2nc(-c3ccc(-c4ccc(-c5c[nH]c([C@@H](NC(=O)[C@@H]6C[C@@H](C)CN6C(=O)OC(C)(C)C)C(C)(C)C)n5)cc4)cc3)c[nH]2)C(C)(C)C)N(C(=O)OC(C)(C)C)C1` [Compound W-120], the “Fold-Synergistic 1a (Q30E)” value was over 100 fold. In the case of `CC(C)(C)OC(=O)N1[C@@H]2CC[C@@H](C2)[C@H]1C(=O)N[C@H](c1nc(-c2ccc(-c3ccc(-c4c[nH]c([C@@H](NC(=O)[C@@H]5[C@H]6CC[C@H](C6)N5C(=O)OC(C)(C)C)C(C)(C)C)n4)cc3)cc2)c[nH]1)C(C)(C)C` [Compound W-121] it was over 100 fold. In the case of `CC1(C)CC(C(=O)N[C@H](c2nc(-c3ccc(-c4ccc(-c5c[nH]c([C@@H](NC(=O)C6CCOC(C)(C)C6)C(C)(C)C)n5)cc4)cc3)c[nH]2)C(C)(C)C)CCO1` (stereo partly drawn) [Compound W-122] it was over 100 fold; in that of `CC(C)(C)[C@H](NC(=O)C1CCOCC1)c1nc(-c2ccc(-c3ccc(-c4c[nH]c([C@@H](NC(=O)C5CCOCC5)C(C)(C)C)n4)cc3)cc2)c[nH]1` [Compound W-123], over 100 fold; in that of `COC(=O)C1(C(=O)N[C@H](c2nc(-c3ccc(-c4ccc(-c5c[nH]c([C@@H](NC(=O)C6(C(=O)OC)CC6)C(C)(C)C)n5)cc4)cc3)c[nH]2)C(C)(C)C)CC1` [Compound W-124], over 100 fold.

With `CC(CO)(CO)C(=O)N[C@H](c1nc(-c2ccc(-c3ccc(-c4c[nH]c([C@@H](NC(=O)C(C)(CO)CO)C(C)(C)C)n4)cc3)cc2)c[nH]1)C(C)(C)C` [Compound W-125], the “Fold-Synergistic 1a (Q30E)” value is over 100 fold. In the case of `CCOC(=O)C(C)(C)C(=O)N[C@H](c1nc(-c2ccc(-c3ccc(-c4c[nH]c([C@@H](NC(=O)C(C)(C)C(=O)OCC)C(C)(C)C)n4)cc3)cc2)c[nH]1)C(C)(C)C` [Compound W-126] it was over 100 fold; in that of `CC(C)(C)[C@H](NC(=O)C12CCC(O)(CC1)CC2)c1nc(-c2ccc(-c3ccc(-c4c[nH]c([C@@H](NC(=O)C56CCC(O)(CC5)CC6)C(C)(C)C)n4)cc3)cc2)c[nH]1` [Compound W-128], over 100 fold; in that of `CC(C)(C)[C@H](NC(=O)C1CCOC1)c1nc(-c2ccc(-c3ccc(-c4c[nH]c([C@@H](NC(=O)C5CCOC5)C(C)(C)C)n4)cc3)cc2)c[nH]1` (stereo partly drawn) [Compound W-129], over 10 fold. In the case of `CC1(C(=O)N[C@H](c2nc(-c3ccc(-c4ccc(-c5c[nH]c([C@@H](NC(=O)C6(C)CCOCC6)C(C)(C)C)n5)cc4)cc3)c[nH]2)C(C)(C)C)CCOCC1` [Compound W-130] it was over 100 fold; in that of `CC(C)(C)[C@H](NC(=O)C1CCCOC1)c1nc(-c2ccc(-c3ccc(-c4c[nH]c([C@@H](NC(=O)C5CCCOC5)C(C)(C)C)n4)cc3)cc2)c[nH]1` (stereo partly drawn) [Compound W-131], over 100 fold; in that of `CC(C)(C)OC(=O)NC1(C(=O)N[C@H](c2nc(-c3ccc(-c4ccc(-c5c[nH]c([C@@H](NC(=O)C6(NC(=O)OC(C)(C)C)CCOCC6)C(C)(C)C)n5)cc4)cc3)c[nH]2)C(C)(C)C)CCOCC1` [Compound W-132], over 100 fold. Regarding `CC(C)(C)[C@H](NC(=O)[C@H]1CC[C@@H](O)CC1)c1nc(-c2ccc(-c3ccc(-c4c[nH]c([C@@H](NC(=O)[C@H]5CC[C@@H](O)CC5)C(C)(C)C)n4)cc3)cc2)c[nH]1` [Compound W-134], the “Fold-Synergistic 1a (Q30E)” value was over 100 fold. Regarding `CC(C)(C(=O)N[C@H](c1nc(-c2ccc(-c3ccc(-c4c[nH]c([C@@H](NC(=O)C(C)(C)C(=O)N5CCC(O)CC5)C(C)(C)C)n4)cc3)cc2)c[nH]1)C(C)(C)C)C(=O)N1CCC(O)CC1` [Compound W-136], the “Fold-Synergistic 1a (Q30E)” value is listed as over 10 fold. In the case of `CN(C)C(=O)C(C)(C)C(=O)N[C@H](c1nc(-c2ccc(-c3ccc(-c4c[nH]c([C@@H](NC(=O)C(C)(C)C(=O)N(C)C)C(C)(C)C)n4)cc3)cc2)c[nH]1)C(C)(C)C` [Compound W-138] it was over 100 fold. Then `CC(C)(C(=O)NCC(F)(F)F)C(=O)N[C@H](c1nc(-c2ccc(-c3ccc(-c4c[nH]c([C@@H](NC(=O)C(C)(C)C(=O)NCC(F)(F)F)C(C)(C)C)n4)cc3)cc2)c[nH]1)C(C)(C)C` [Compound W-139], with over 100 fold.

On to `CN(C(=O)C(C)(C)C(=O)N[C@H](c1nc(-c2ccc(-c3ccc(-c4c[nH]c([C@@H](NC(=O)C(C)(C)C(=O)N(C)C5CC5)C(C)(C)C)n4)cc3)cc2)c[nH]1)C(C)(C)C)C1CC1` [Compound W-140], for which the “Fold-Synergistic 1a (Q30E)” value is recorded as under 10 fold. Turning to `CC(C)(C(=O)N[C@H](c1nc(-c2ccc(-c3ccc(-c4c[nH]c([C@@H](NC(=O)C(C)(C)C(=O)N5CCC(F)(F)CC5)C(C)(C)C)n4)cc3)cc2)c[nH]1)C(C)(C)C)C(=O)N1CCC(F)(F)CC1` [Compound W-141], the “Fold-Synergistic 1a (Q30E)” value is given as over 100 fold. Then `CC(C)(C(=O)N[C@H](c1nc(-c2ccc(-c3ccc(-c4c[nH]c([C@@H](NC(=O)C(C)(C)C(=O)N5CCC(F)CC5)C(C)(C)C)n4)cc3)cc2)c[nH]1)C(C)(C)C)C(=O)N1CCC(F)CC1` [Compound W-142], with over 100 fold. As to `COC1CCN(C(=O)C(C)(C)C(=O)N[C@H](c2nc(-c3ccc(-c4ccc(-c5c[nH]c([C@@H](NC(=O)C(C)(C)C(=O)N6CCC(OC)CC6)C(C)(C)C)n5)cc4)cc3)c[nH]2)C(C)(C)C)CC1` [Compound W-143], the “Fold-Synergistic 1a (Q30E)” value is reported as over 100 fold. With `CC(C)(C(=O)N[C@H](c1nc(-c2ccc(-c3ccc(-c4c[nH]c([C@@H](NC(=O)C(C)(C)C(=O)N5CC(O)C5)C(C)(C)C)n4)cc3)cc2)c[nH]1)C(C)(C)C)C(=O)N1CC(O)C1` [Compound W-144], the “Fold-Synergistic 1a (Q30E)” value is over 10 fold. Then `CC(C)(C(=O)N[C@H](c1nc(-c2ccc(-c3ccc(-c4c[nH]c([C@@H](NC(=O)C(C)(C)C(=O)N5CC6CCC(C5)O6)C(C)(C)C)n4)cc3)cc2)c[nH]1)C(C)(C)C)C(=O)N1CC2CCC(C1)O2` [Compound W-145], with over 10 fold.

Regarding `C[C@@H]1CCCCN1C(=O)C(C)(C)C(=O)N[C@H](c1nc(-c2ccc(-c3ccc(-c4c[nH]c([C@@H](NC(=O)C(C)(C)C(=O)N5CCCC[C@H]5C)C(C)(C)C)n4)cc3)cc2)c[nH]1)C(C)(C)C` [Compound W-148], the “Fold-Synergistic 1a (Q30E)” value is given as over 100 fold. Turning to `CC(C)(Br)C(=O)N[C@H](c1nc(-c2ccc(-c3ccc(-c4c[nH]c([C@@H](NC(=O)C(C)(C)Br)C(C)(C)C)n4)cc3)cc2)c[nH]1)C(C)(C)C` [Compound W-149], the “Fold-Synergistic 1a (Q30E)” value is reported as over 100 fold. In the case of `CC(C)(C)[C@H](NC(=O)C(C)(C)n1cnc(C(F)(F)F)c1)c1nc(-c2ccc(-c3ccc(-c4c[nH]c([C@@H](NC(=O)C(C)(C)n5cnc(C(F)(F)F)c5)C(C)(C)C)n4)cc3)cc2)c[nH]1` [Compound W-150] it was over 100 fold; in that of `CC(C)(C(=O)N[C@H](c1nc(-c2ccc(-c3ccc(-c4c[nH]c([C@@H](NC(=O)C(C)(C)C(=O)N5CC[C@@H](O)C5)C(C)(C)C)n4)cc3)cc2)c[nH]1)C(C)(C)C)C(=O)N1CC[C@@H](O)C1` [Compound W-151], over 10 fold. Then `CC(C)(C(=O)N[C@H](c1nc(-c2ccc(-c3ccc(-c4c[nH]c([C@@H](NC(=O)C(C)(C)C(=O)N5CC[C@H](O)C5)C(C)(C)C)n4)cc3)cc2)c[nH]1)C(C)(C)C)C(=O)N1CC[C@H](O)C1` [Compound W-152], with over 100 fold; and `CC(C)(C(=O)N[C@H](c1nc(-c2ccc(-c3ccc(-c4c[nH]c([C@@H](NC(=O)C(C)(C)C(=O)N5CC6CC6C5)C(C)(C)C)n4)cc3)cc2)c[nH]1)C(C)(C)C)C(=O)N1CC2CC2C1` (stereo partly drawn) [Compound W-153], with over 100 fold. Then `C[C@@H]1CN(C(=O)C(C)(C)C(=O)N[C@H](c2nc(-c3ccc(-c4ccc(-c5c[nH]c([C@@H](NC(=O)C(C)(C)C(=O)N6C[C@@H](C)O[C@@H](C)C6)C(C)(C)C)n5)cc4)cc3)c[nH]2)C(C)(C)C)C[C@H](C)O1` [Compound W-154], with over 100 fold. As for `CC(C)(C(=O)N[C@H](c1nc(-c2ccc(-c3ccc(-c4c[nH]c([C@@H](NC(=O)C(C)(C)C(=O)NC56CC(C5)C6)C(C)(C)C)n4)cc3)cc2)c[nH]1)C(C)(C)C)C(=O)NC12CC(C1)C2` [Compound W-155], the “Fold-Synergistic 1a (Q30E)” value is over 100 fold. For the compound `CCN(CC1CC1)C(=O)C(C)(C)C(=O)N[C@H](c1nc(-c2ccc(-c3ccc(-c4c[nH]c([C@@H](NC(=O)C(C)(C)C(=O)N(CC)CC5CC5)C(C)(C)C)n4)cc3)cc2)c[nH]1)C(C)(C)C` [Compound W-156], the “Fold-Synergistic 1a (Q30E)” value is reported as over 100 fold. In the case of `CCN(CCOC)C(=O)C(C)(C)C(=O)N[C@H](c1nc(-c2ccc(-c3ccc(-c4c[nH]c([C@@H](NC(=O)C(C)(C)C(=O)N(CC)CCOC)C(C)(C)C)n4)cc3)cc2)c[nH]1)C(C)(C)C` [Compound W-157] it was over 10 fold; in that of `CCN(CCC#N)C(=O)C(C)(C)C(=O)N[C@H](c1nc(-c2ccc(-c3ccc(-c4c[nH]c([C@@H](NC(=O)C(C)(C)C(=O)N(CC)CCC#N)C(C)(C)C)n4)cc3)cc2)c[nH]1)C(C)(C)C` [Compound W-158], over 100 fold; in that of `C[C@@H]1CN(C(C)(C)C(=O)N[C@H](c2nc(-c3ccc(-c4ccc(-c5c[nH]c([C@@H](NC(=O)C(C)(C)N6C[C@@H](C)O[C@@H](C)C6)C(C)(C)C)n5)cc4)cc3)c[nH]2)C(C)(C)C)C[C@H](C)O1` [Compound W-160], over 10 fold. Then `CC(C)[C@H](NC(=O)C(C)(C)N1C[C@@H](C)O[C@@H](C)C1)c1nc(-c2ccc(-c3ccc(-c4c[nH]c([C@@H](NC(=O)C(C)(C)N5C[C@@H](C)O[C@@H](C)C5)C(C)C)n4)cc3)cc2)c[nH]1` [Compound W-161], with over 100 fold.
